Legend:
human skeletal myotubes = test: Triglyceride accumulation in oleate-loaded human skeletal myotubes; assay type: cell-based; settings: Myotube, 100 μM oleate 24 hours, read-out: EC50, inhibition of TAG accumulation
Protocol: Human skeletal myotubes were differentiated for 8 days. On day 7, 100 μM of oleic acid complexed to fatty acid-free BSA was added to the cells with the indicated concentration of test compound for 24 hours. Following incubation with oleate and compound, cells were formaldehyde fixed and stained with AdipoRed™ (Lonza). Triglyceride accumulation was measured using signal intensity at excitation 540/emission 590 nm (Bio-Tek Instruments, Inc.). Dose response curves were generated in Prism 6 (GraphPad Software). EC50 values were calculated using non-linear regression analysis. For biochemical measurement of triglyceride, human skeletal myotubes were incubated with oleate-BSA and test compound as described above. After 24 hour incubation, cells were collected with a lysis buffer containing 0.1% IGEPAL CA-630 (Sigma-Aldrich) in PBS. The harvested cells were sonicated for 5 seconds and then centrifuged at 10,000×g for 10 minutes at 4° C. The supernatant was removed and stored on ice. TAG levels were quantified using Infinity™ Triglycerides Liquid Stable Reagent (Thermo Scientific), following the manufacturer's instructions for colorimetric assay.
Student's t-test, Mann Whitney test, one-way ANOVA with Bonferroni post hoc test, or two-way ANOVA with Tukey post hoc test was performed to determine statistical significance as indicated. […]

SCD-1 = SCD-1 (Homo sapiens, UniProt O00767); test: Direct inhibition of SCD-1 activity; assay type: biochemical; settings: data not shown
[1] = system: insulin receptor substrate 1 (IRS-1); test: Western blot of IRS-1 phosphorylation; assay type: cell-based, human; settings: 24 hours
Protocol: FIGS. 3A, B, C, E and F show SBI-477 stimulation of glucose uptake and activates insulin signaling in the absence of insulin. Human skeletal myotubes were incubated with SBI-477 at the indicated concentration for 24 hours and then treated with or without insulin (100 nM) for 30 minutes. Glucose ([3H]-2-deoxyglucose, 2-DG) uptake (FIG. 3A) and glycogen synthesis rates (FIGS. 3B and 3C) were measured (n=5) as described in Methods. *p<0.05 vs. Vehicle, no insulin, †p<0.05 vs. Vehicle/insulin by two-way ANOVA with Tukey's post hoc test. (FIG. 3E) Western blot analysis of human myotubes treated with SBI-477 for 24 hours was performed to determine the effect on steps of the insulin signaling pathway using specific Akt and IRS-1 phosphorylation sites as endpoints. Insulin treatment (100 nM) for 30 minutes was used as positive control. (FIG. 3F) Quantitation of the western blot data in […] is shown (n=5). *p<0.05 or **p<0.01 vs. Vehicle by one-way ANOVA with Bonferroni post hoc test. The data represent mean±SD.
(§1) Cells were lysed in the RIPA buffer containing 1% NP-40, 5 mM Na4P2O7, 1 mM EDTA, 20 mM NaF, 2 mM Na3VO4, 1× cOmplete™ protease inhibitor (Roche) and 1 mM phenylmethylsulfonyl fluoride. […] Protein quantification was performed using FluorChemQ (Alpha Innotech) and normalized to […]-actin or total protein where indicated.

TXNIP [2] = test: TXNIP expression by quantitative RT-PCR in human myotubes; assay type: cell-based; settings: 24 hours
Protocol: (§2) FIGS. 4A-C show downregulation of TXNIP and ARRDC4 expression by SBI-477. (FIG. 4A) TXNIP and ARRDC4 mRNA levels as determined by quantitative RT-PCR in human myotubes treated with SBI-477 (10 μM) or DGAT1 inhibitor (DGATi, […]) for 24 hours in the absence or presence of 100 μM oleate (n=4). Expression is shown relative to vehicle/BSA treatment. (FIG. 4B) TXNIP gene expression following exposure to a dose range of SBI-477 for 24 hours (n=4). (FIG. 4C) Left, Effect of SBI-477 on TXNIP protein levels as determined by western blot analysis by SBI-477. Right, Quantitation of the TXNIP western blot data is shown (n=5). *p<0.05 vs. Vehicle/BSA control, †p<0.05 vs. Vehicle/oleate by one-way ANOVA with Bonferroni post hoc test. The data are shown as mean±SD.
Total RNA was isolated using RNeasy Mini Kit (Qiagen) according to the manufacturer's instructions. cDNA was synthesized using the Affinity Script cDNA Synthesis Kit (Stratagene) with 0.5 μg of total RNA. PCR reactions were performed in triplicate […] Roche LightCycler® 480 Instrument II) with specific primers for each gene.

TXNIP [3] = test: TXNIP protein levels by western blot; assay type: cell-based; settings: human myotubes
Protocol: as §2
as §1, with “fluoride. Whole cell lysates were subjected to SDS-PAGE and transferred to a nitrocellulose membrane. The blots were hybridized with specific antibodies and developed with enhanced chemiluminescence kit (Pierce).” for “fluoride.”

MondoA = biological target: T1, MondoA (Homo sapiens, UniProt Q9HAP2); test: Intracellular localization of MondoA (immunolocalization); assay type: cell-based; settings: human skeletal myoblasts; data not shown
T1 construct: endogenous in cells; host or cells: human skeletal myoblasts
Protocol: The activity of ChREBP and MondoA is governed, in part, by nuclear-cytoplasmic shuttling mechanisms that are incompletely understood but likely involve glucose metabolites and phosphorylation (Stoltzman, et al., Proc Natl Acad Sci USA. 2008; 105(19):6912-6917; Filhoulaud, et al., Trends Endocrinol Metab. 2013; 24(5):257-268). Accordingly, the effect of SBI-477 on intracellular localization of MondoA was assessed. […] The results of immunoblotting studies conducted with fractionated cellular extracts further supported this conclusion (FIG. 5D).

T1 sequence (Q9HAP2 whole entry): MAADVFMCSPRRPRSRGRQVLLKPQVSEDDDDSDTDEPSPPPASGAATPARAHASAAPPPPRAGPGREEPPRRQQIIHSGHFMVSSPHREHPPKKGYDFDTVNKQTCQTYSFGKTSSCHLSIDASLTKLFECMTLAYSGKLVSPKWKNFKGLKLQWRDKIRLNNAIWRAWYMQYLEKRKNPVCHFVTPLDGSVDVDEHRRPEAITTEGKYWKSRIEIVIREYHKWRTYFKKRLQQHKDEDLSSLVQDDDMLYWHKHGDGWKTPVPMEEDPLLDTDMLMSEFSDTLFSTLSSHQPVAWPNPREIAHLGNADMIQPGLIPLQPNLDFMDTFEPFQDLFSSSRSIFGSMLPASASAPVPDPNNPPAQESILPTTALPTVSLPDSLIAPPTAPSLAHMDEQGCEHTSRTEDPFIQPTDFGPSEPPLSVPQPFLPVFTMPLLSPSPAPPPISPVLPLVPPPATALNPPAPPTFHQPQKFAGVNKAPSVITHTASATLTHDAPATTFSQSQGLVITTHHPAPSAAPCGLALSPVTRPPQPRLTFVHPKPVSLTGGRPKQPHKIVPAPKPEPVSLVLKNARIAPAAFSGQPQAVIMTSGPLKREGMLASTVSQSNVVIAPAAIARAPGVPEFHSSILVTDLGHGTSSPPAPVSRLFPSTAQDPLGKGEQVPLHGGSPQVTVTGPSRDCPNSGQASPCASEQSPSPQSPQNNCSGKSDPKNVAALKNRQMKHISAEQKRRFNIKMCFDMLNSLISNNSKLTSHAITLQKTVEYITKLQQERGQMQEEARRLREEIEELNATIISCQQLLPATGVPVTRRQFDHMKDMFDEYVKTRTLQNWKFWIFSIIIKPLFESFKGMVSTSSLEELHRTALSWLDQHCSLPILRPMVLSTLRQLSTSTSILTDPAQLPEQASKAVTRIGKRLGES
SCD-1, sequence (O00767 whole entry, species assumed): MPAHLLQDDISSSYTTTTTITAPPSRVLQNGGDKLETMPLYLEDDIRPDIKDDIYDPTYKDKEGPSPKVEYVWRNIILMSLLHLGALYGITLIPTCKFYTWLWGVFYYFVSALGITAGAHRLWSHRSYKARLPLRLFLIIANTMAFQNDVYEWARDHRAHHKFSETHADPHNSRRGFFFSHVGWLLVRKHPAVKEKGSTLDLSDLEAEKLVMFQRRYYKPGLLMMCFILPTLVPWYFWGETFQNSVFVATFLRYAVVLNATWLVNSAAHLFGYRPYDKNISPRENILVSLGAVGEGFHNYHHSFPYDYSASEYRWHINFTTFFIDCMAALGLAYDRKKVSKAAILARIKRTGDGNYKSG

EC50 (human skeletal myotubes): ~1 µM
Direct inhibition of SCD-1 activity (SCD-1): not found that SBI-477 directly inhibits
SMILES: COc1ccc(-c2csc(NC(=O)c3ccc(OCC(=O)N4CCOCC4)c(OC)c3)n2)cc1 [Cpd. 7, 3-methoxy-N-(4-(4-methoxyphenyl)thiazol-2-yl)-4-(2-morpholino-2-oxoethoxy)benzamide]
IRS-1 phosphorylation at serine sites 636/639 [1]: decreased
Tyrosine phosphorylation of IRS-1 ([1]; absence of insulin): increased
TXNIP expression (TXNIP [2]): robust, dose-dependent downregulation
TXNIP protein levels (TXNIP [3]): reduced by SBI-477 in dose-dependent manner
Nuclear localization of MondoA (MondoA): near complete nuclear exclusion of MondoA

— US11028061B2, “Modulators of myocyte lipid accumulation and insulin resistance and methods of use thereof” (Sanford Burnham Prebys Medical Discovery Institute, priority 2015, dated 2021)
